From US9073918B2, “Pyrazolo[4,3-b]pyridine-7-amine inhibitors of ALK5” (Takeda Pharmaceutical Company Limited, priority 2010, dated 2015) come the findings set out here.

The target in one experiment is T1, TGF-β R1 ALK5 (Homo sapiens, UniProt P36897).
T1 construct: purchased Invitrogen PV5837
T1 sequence (P36897 34-503): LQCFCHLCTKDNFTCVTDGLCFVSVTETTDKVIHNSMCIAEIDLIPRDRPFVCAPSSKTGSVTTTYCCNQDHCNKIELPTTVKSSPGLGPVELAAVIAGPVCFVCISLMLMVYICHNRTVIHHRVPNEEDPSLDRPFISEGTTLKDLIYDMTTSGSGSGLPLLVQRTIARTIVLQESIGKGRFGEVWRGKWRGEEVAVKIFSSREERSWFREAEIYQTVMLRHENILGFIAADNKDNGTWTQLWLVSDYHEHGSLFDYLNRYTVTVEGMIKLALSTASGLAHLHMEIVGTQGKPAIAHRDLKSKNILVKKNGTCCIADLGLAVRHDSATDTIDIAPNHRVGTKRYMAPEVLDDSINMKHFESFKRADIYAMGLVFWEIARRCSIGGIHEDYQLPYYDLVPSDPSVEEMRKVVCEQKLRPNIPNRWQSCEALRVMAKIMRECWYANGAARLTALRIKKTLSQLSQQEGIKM
Kind of experiment: In vitro inhibition of ALK5 (LanthaScreen activity assay, TR-FRET). Type of experiment: biochemical. The protocol: Test compounds were screened for TGF-β R1 ALK5 inhibition by use of a LanthaScreen™ activity assay (PV5837 Invitrogen, Invitrogen Corp. Madison, Wis.).
In brief, the assay procedure was as follows:
Solutions of test compounds were prepared in DMSO and diluted two-fold serially.
Assays were incubated for 90 minutes at room temperature and then quenched by the addition of 60 mM EDTA and 8 nM Terbium labeled anti-pSMAD3 Antibody (M4337 from Invitrogen) giving a final concentration of 15 mM EDTA and 2 nM Terbium labeled anti-pSMAD3 Antibody. Phosphorylated peptide product was quantified by measuring an increase in TR-FRET on a BMG LABTECH PHERA star plus. Response is defined as the ratio of Channel A/Channel B. The response of a blank (uninhibited) using vehicle alone is also determined. Enzyme activity was defined as the response of uninhibited enzyme activity minus the response of assays containing no enzyme. The percent inhibition of ALK5 at a given compound concentration is defined as: 100%×[1−(response compound/response blank)]
where response compound is defined as the enzyme activity in the presence of test compound and response blank is defined as the uninhibited enzyme activity. The pIC50 value (negative log of the molar concentration of the compound that produces 50% inhibition) of a test compound is calculated by non-linear least squares curve fitting of the equation: Percent Inhibition=100%/(1+(10−pIC50/10 log [I])).
Where inhibition was measured in multiple experiments the value in Table 1 is an average. N.T. means not tested.

The target in a further experiment is T2, cellular TGF-β R1 ALK5 (Homo sapiens, UniProt P36897).
T2 construct: host or cells: CellSensor SBE-bla HEK 293T
T2 sequence (P36897 34-503): T1 sequence (P36897 34-503)
Briefly: Cellular inhibition of ALK5 (CellSensor SBE-bla HEK 293T beta-lactamase reporter). The class given is cell-based. To be noted: cellular inhibition of ALK5, SBE-bla HEK 293T cells, TGFb-1 stimulated 5 hours; average where measured in multiple experiments. From the text: Test compounds were screened for cellular TGF-β R1 ALK5 inhibition by use of a CellSensor® SBE-bla HEK 293T (K1550, Invitrogen Corp. Madison, Wis.) cell line. The CellSensor® SBE-bla HEK 293T cell line contains a beta-lactamase reporter gene under control of the SBE response element stably integrated into HEK 293T cells. The SBE response element is a DNA region that binds activated SMADs which results from the binding of TGF-β to, and subsequent activation of ALK5.
The assay procedure was as follows:
CellSensor® SBE-bla HEK 293T cell line were plated at 12,000 cells/well in 40 ul DMEM plus 5 ug/ml blasticidin into 384-well, black-wall, clear-bottom assay plate and incubated overnight.
The following day 5 uL of 10×, 2.5-fold serially diluted test compounds in DMSO were added into cells to a final compound concentration of 1× and DMSO concentration of 0.5%. Assay was incubated for 1 hour at 37° C., 5% CO2, 5 uL of 100 ng/mL TGFb-1 was then added to activate ALK5 and incubated for 5 hours at 37° C., 5% CO2, 10 uL of detector, LiveBLAzer FRET B/G substrate (CCF4-AM, Invitrogen Corp. Madison, Wis.) was added to cells and incubated for 2 hours at RT. Assay was measured using Spectramax, a bottom-read fluorescence plate reader, at excitation setting of 405 nm and emission settings of 460 nm and 530 nm.
Response is defined as the ratio of background corrected 460 nm emission values/background corrected 530 nm emission values. Cellular activity was defined as percent inhibition of uninhibited ALK5 activity (wells treated with DMSO+TGF-β). The percent inhibition of cellular ALK5 at a given compound concentration is defined as: 100%×[1−(response compound+TGF-β/response DMSO+TGF-β)] where response compound+TGF-β is defined as the activity in the presence of test compound and response DMSO+TGF-β is defined as the uninhibited cellular ALK5 activity. The pIC50 value (negative log of the molar concentration of the compound that produces 50% inhibition) of a test compound is calculated by non-linear least squares curve fitting. pIC50 values, the negative of the log of the IC50, are calculated by non-linear curve fitting of the compound concentrations and percent of inhibition to the standard pIC50 equation.
Where inhibition was measured in multiple experiments the value in Table 2 is an average. N.T. means not tested.

With `Cc1ccc(F)c(-c2cc(Nc3ccnc4cnn(CCF)c34)ccn2)n1` [Example 101, N-(3′-fluoro-6′-methyl-2,2′-bipyridin-4-yl)-1-(2-fluoroethyl)-1H-pyrazolo[4,3-b]pyridin-7-amine], the half-maximal inhibitory concentration (IC50) at TGF-β R1 ALK5 was 25.1 nM; against cellular TGF-β R1 ALK5, 100 nM.
In the case of “N-(2-(5-chloro-2-fluorophenyl)pyridin-4-yl)-2-(2-methoxyethyl)-2H-pyrazolo[4,3-b]pyridin-7-amine and N-(2-(5-chloro-2-fluorophenyl)pyridin-4-yl)-1-(2-methoxyethyl)-2H-pyrazolo[4,3-b]pyridin-7-amine [Example 35]”, the negative-log IC50 (pIC50) against TGF-β R1 ALK5 (in vitro inhibition of ALK5, 15 nM ALK5, 2 μM ATP, Fluorescein-SMAD3 peptide, 90 minutes at room temperature, average where measured in multiple experiments) worked out at 6.6; on cellular TGF-β R1 ALK5, 6.6.
Turning to `CCCn1cc2nccc(Nc3ccnc(-c4cc(Cl)ccc4F)c3)c2n1` [Example 19, N-(2-(5-chloro-2-fluorophenyl)pyridin-4-yl)-2-propyl-2H-pyrazolo[4,3-b]pyridin-7-amine], the IC50 against TGF-β R1 ALK5 was 50.1 nM; at cellular TGF-β R1 ALK5, 398 nM.
For `Cc1ccc(F)c(-c2cc(Nc3ccnc4cn(C[C@@H](C)O)nc34)c(C)cn2)n1` [Example 150, (R)-1-(7-(3′-fluoro-5,6′-dimethyl-2,2′-bipyridin-4-ylamino)-2H-pyrazolo[4,3-b]pyridin-2-yl)propan-2-ol] the same measures were 7.94 nM and 158 nM.
In the same order, the values of `CCNC(=O)N1CCC(Cn2cc3nccc(Nc4ccnc(-c5cc(Cl)ccc5F)c4)c3n2)CC1` [Example 28, 4-((7-(2-(5-chloro-2-fluorophenyl)pyridin-4-ylamino)-2H-pyrazolo[4,3-b]pyridin-2-yl)methyl)-N-ethylpiperidine-1-carboxamide] are 2510 nM and 2510 nM.
For `Cc1ccc(F)c(-c2cc(Nc3ccnc4cn([C@@H]5CCOC5)nc34)c(C)cn2)n1` [Example 136, (R)—N-(3′-fluoro-5,6′-dimethyl-2,2′-bipyridin-4-yl)-2-(tetrahydrofuran-3-yl)-2H-pyrazolo[4,3-b]pyridin-7-amine] the same measures were 6.31 nM and 79.4 nM.
On to `Fc1ccc(Cl)cc1-c1cc(Nc2ccnc3cn[nH]c23)ccn1` [Example 17, N-(2-(5-chloro-2-fluorophenyl)pyridin-4-yl)-1H-pyrazolo[4,3-b]pyridin-7-amine], for which the half-maximal inhibitory concentration (IC50) was 5.01 nM at TGF-β R1 ALK5 and 50.1 nM on cellular TGF-β R1 ALK5.
Take `Cc1cnc(-c2cc(F)ccc2F)cc1Nc1ccnc2cn(CC(C)O)nc12` (stereo not drawn) [Example 143, 1-(7-(2-(2,5-difluorophenyl)-5-methylpyridin-4-ylamino)-2H-pyrazolo[4,3-b]pyridin-2-yl)propan-2-ol]: the half-maximal inhibitory concentration (IC50) was 20 nM against TGF-β R1 ALK5 and 126 nM at cellular TGF-β R1 ALK5.
In the same order, the values of `Cc1ccc(F)c(-c2cc(Nc3ccnc4cnn(C[C@@H](C)O)c34)ccn2)n1` [Example 98, (R)-1-(7-(3′-fluoro-6′-methyl-2,2′-bipyridin-4-ylamino)-1H-pyrazolo[4,3-b]pyridin-1-yl)propan-2-ol] are 6.31 nM and 25.1 nM.
In the same order, the values of `CNC(=O)n1ncc2nccc(Nc3cc(-c4cc(F)ccc4F)ncc3C)c21` [Example 116, 7-(2-(2,5-difluorophenyl)-5-methylpyridin-4-ylamino)-N-methyl-1H-pyrazolo[4,3-b]pyridine-1-carboxamide] are 1 nM and 25.1 nM.
In the same order, the values of `Cc1ccc(F)c(-c2cc(Nc3ccnc4cnn(C5CCS(=O)(=O)C5)c34)c(C)cn2)n1` (stereo not drawn) [Example 157, N-[1-(1,1-dioxidotetrahydrothiophen-3-yl)-1H-pyrazolo[4,3-b]pyridin-7-yl]-3′-fluoro-5,6′-dimethyl-2,2′-bipyridin-4-amine] are 25.1 nM and 398 nM.
Take `CCNC(=O)Cn1cc2nccc(Nc3cc(-c4cc(F)ccc4F)ncc3C)c2n1` [Example 156, 2-(7-(2-(2,5-difluorophenyl)-5-methylpyridin-4-ylamino)-2H-pyrazolo[4,3-b]pyridin-2-yl)-N-ethylacetamide]: the figures for the IC50 on TGF-β R1 ALK5 and at cellular TGF-β R1 ALK5 were 3.16 nM and 126 nM, respectively.
